Test results from patent US20240342111A1, “ISOMER-SPECIFIC NEUROPROTECTIVE EFFECT OF NATURAL RESERVATROL” (priority 2021, published 2024).

Assays:
[1] = tested on: Rat cortical neurons; assay: MPP+ toxicity (mitochondrial inhibition), cell viability; type: cell-based
[2] = tested on: tau; assay: Immunostaining of phospho-tau (pSer404-tau); type: cell-based, rat; conditions: 25 μM, 16 hours
[3] = tested on: 8-oxo-2′-dG; assay: Quantification of 8-oxo-2′-dG (oxidation level of neuronal DNA); type: cell-based, rat; conditions: 50 μM, 16 hours
Text: Although Aβ exacerbates neuronal DNA damage through an unknown mechanism, see Suberbielle, E. et al. Physiologic brain activity causes DNA double-strand breaks in neurons, with exacerbation by amyloid-beta. […] Elife 7, doi:ARTN e34334 10.7554/eLife.34334 (2018), and (see FIG. 7 at (b)). […] Mol Cell 65, 932-940 e936, doi:10.1016/j.molcel.2017.01.003 (2017), in a time-dependent manner (see FIG. 7 at (c)). […] Representative immunoblots and quantification for the auto-PARylation level of PARP1 after the siRNA knockdown of TyrRS.

[4] = tested on: pSer10-H3; assay: Immunostaining of pSer10-H3 (ADP-ribosylation dependent DNA repair marker); type: cell-based, rat; conditions: pre-treated 50 μM 16 hours, then Aβ 50 nM 24 hours
Text: Ac-K56-H3 is a marker of genomic stability, see Driscoll, R., Hudson, A. & Jackson, S. P. Yeast Rtt109 promotes genome stability by acetylating histone H3 on lysine 56. Science 315, 649-652, doi:10.1126/science.1135862 (2007), and DNA damage, see Tjeertes, J. V., Miller, K. M. & Jackson, S. P. Screen for DNA-damage-responsive histone modifications identifies H3K9Ac and H3K56Ac in human cells. EMBO J 28, 1878-1889, doi:10.1038/emboj.2009.119 (2009), and inhibition of PARP1 causes the downregulation of RAD51, see Hegan, D. C. et al. Inhibition of poly(ADP-ribose) polymerase down-regulates BRCA1 and RAD51 in a pathway mediated by E2F4 and p130. Proc Natl Acad Sci U S A 107, 2201-2206, doi:10.1073/pnas.0904783107 (2010), and induces neurotoxicity, see Diaz-Hernandez, J. I., Moncada, S., Bolanos, J. P. & Almeida, A. Poly(ADP-ribose) polymerase-1 protects neurons against apoptosis induced by oxidative stress. Cell Death Differ 14, 1211-1221, doi:10.1038/sj.cdd.4402117 (2007) and Midorikawa, R., Takei, Y. & Hirokawa, N. KIF4 motor regulates activity-dependent neuronal survival by suppressing PARP-1 enzymatic activity. Cell 125, 371-383, doi:10.1016/j.cell.2006.02.039 (2006). […] The western blot images of the protein levels of HPF1 was quantified using ImageJ.
Coverslips were then mounted using DAPI (4′,6-diamidino-2-phenylindole)-supplemented mounting medium, Prolong Gold Antifade (Invitrogen) imaged with Leica DMI6000 epifluorescent microscope at 63×magnification.

[5] = tested on: PARP1; assay: Immunoblot for auto-PARylation of PARP1; type: cell-based, rat; conditions: 15 minutes
[6] = tested on: H3; assay: Immunoblot for histone H3 acetylation (Ac-K9-H3, Ac-K56-H3); type: cell-based, rat; conditions: 15 minutes
[7] = tested on: RAD51; assay: Immunoblot for RAD51 levels; type: cell-based, rat; conditions: 4 hours
[8] = tested on: TyrRS; assay: Immunostaining of neuronal TyrRS under neurotoxic agents (NMDA, MPP+); type: cell-based, rat; conditions: 50 μM in combination with 50 μM NMDA or 100 μM MPP+, 4 hours
[9] = tested on: PARP1; assay: Immunoblot of chromatin fraction for PARP1 and PAR; type: cell-based, rat; conditions: 50 μM, 1 hour
[10] = tested on: Rat cortical neurons transfected with TyrRS siRNA; assay: TyrRS siRNA knockdown, then excitotoxic NMDA, MTT assay; type: cell-based; conditions: 24 hours
Procedure: Cells viability was assessed using MTT assay. […] Cells were then exposed to excitotoxic NMDA (500 μM for 5 minutes), and viability was assessed using MTT assay after 24 hours.
Primary cortical neuron cultures were obtained from E18 Sprague Dawley rats' cortices, which were dissected in Hibernate E (BrainBits) and dissociated using the Neural Tissue Dissociation kit (Miltenyi Biotec). For this, minced cortices were incubated in a pre-warmed enzyme mix at 37° C. for 15 min; tissues were then triturated and strained using a 40 μm cell strainer. After washing and centrifugation, neurons were seeded in 50 μg/ml poly-D-Lysine (Sigma Aldrich) coated tissue culture plates. NBActive-1 medium (BrainBits) supplemented with 100 U/ml of Penicillin-Streptomycin (Life Technologies), 2 mM L-Glutamine (Life Technologies), and 1 X N21 supplement (R&D Systems) was used as culture medium. Control (AM4635), TyrRS (s443), PARP1 (s130207) siRNA for transfection were obtained from Invitrogen. On 5 DIV, rat cortical neurons were transfected with 75 nM control or TyrRS siRNA using Dharmafect 3 Transfection Reagent. A second transfection was done two days later using 75 nM of TyrRS siRNA, followed by cell collection or assays after another 48 hours. For PARP1 siRNA, on 7 DIV, neurons were transfected with 75 nM siRNA for both control and PARP1 siRNA.
Rat cortical neurons (DIV 10-11) were exposed to different treatments after seeding 20,000 cells/well in 96-well plates. Cell viability was then assessed at 48 hours after the initial exposure to NMDA. 3-[4,5-dimethylthiazole-2-yl]-2,5-diphenyltetrazolium bromide (MTT) assays were used to assess change in cell viability. Cultured rat cortical neurons were incubated with MTT (0.5 mg/mL). […] The percentage of MTT reduced as measured by the difference between the absorbances at 570 nm read in a spectrophotometer (Spectramax 190R Molecular Devices, UK). The percentage of reduction of MTT was calculated comparing the difference of the absorbance at 570 of each sample. […]

[11] = tested on: γ-H2AX foci; assay: Immunostaining of DNA damage marker pSer139-H2AX (γ-H2AX) foci; type: cell-based, rat; conditions: 24 hours; for Aβ-mediated accumulation of γ-H2AX foci: 50 μM in combination with Aβ 50 nM; for γ-H2AX foci: alone, 50 μM

Row | Structure (SMILES) | protection against MPP+ toxicity (cell viability) ([1]; 10 μM MPP, pre-treatment 50 μM for 16 hours, viability after 48 hours) | phosphorylation level of tau (p-tau, pSer404) [2] | levels of 8-oxo-dG [3] | pSer10-H3 levels [4] | auto-PARylation of PARP1 ([5]; cis-RSV) | acetylation level of H3 lysine 9 (Ac-K9-H3) [6] | RAD51 levels ([7]; cis-RSV 5-50 μM) | neurotoxicity-mediated downregulation of neuronal TyrRS [8] | PARP1 and PAR in the chromatin fraction [9] | effect of TyrRS knockdown on viability under excitotoxic NMDA ([10]; cis-RSV 50 μM) | Aβ-mediated accumulation of γ-H2AX foci [11] | γ-H2AX foci [11] | neurotoxicity by itself ([1]; high dose 50 μM, no toxin) | auto-PARylation of PARP1 ([5]; higher dose ≥25 μM) | auto-PARylation of PARP1 ([5]; low dose 5 μM) | acetylation level of H3 lysine 56 (Ac-K56-H3) [6] | RAD51 levels ([7]; low dose 5 μM) | RAD51 levels ([7]; ≥10 μM) | effect of TyrRS knockdown on viability under excitotoxic NMDA ([10]; low dose trans-RSV 5, 10 μM) | effect of TyrRS knockdown on toxic effects under excitotoxic NMDA ([10]; trans-RSV 50 μM)
1 | Oc1ccc(/C=C\c2cc(O)cc(O)c2)cc1 [cis-RSV, cis-resveratrol] | protects against MPP toxicity | significantly downregulated the phosphorylation level of tau (p-tau) | downregulated both the protein levels of OGG1 and the levels of 8-oxo-dG | reduced pSer10-H3 levels | stimulated the auto-PARylation of PARP1 | upregulated the acetylation levels of H3 lysine 9 (Ac-K9-H3) | upregulated it | protected against the downregulation of neuronal TyrRS | downregulated PARP1 (170 kDa) and PAR modification in the chromatin fraction | blunted the neuroprotective effect | rescued A β-mediated accumulation of γ-H2AX foci | downregulated the accumulation of γ-H2AX foci |  |  |  |  |  |  |  | 
2 | Oc1ccc(/C=C/c2cc(O)cc(O)c2)cc1 [trans-RSV, trans-resveratrol] |  | significantly upregulated the level of p-tau | upregulated the levels of 8-oxo-2′-deoxyguanosine (8-oxo-dG) | upregulation |  | downregulated the lysine 9 and 56 acetylation levels of H3 |  | exacerbated the downregulation | enhanced the association (‘trapping’) of PARP1 with chromatin |  | exacerbated the accumulation of γ-H2AX foci | caused the accumulation of γ-H2AX foci | neurotoxic | downregulated the auto-PARylation of PARP1 | stimulated the auto-PARylation of PARP1 | downregulated the lysine 9 and 56 acetylation levels of H3 | upregulated it | downregulated RAD51 in a dose-dependent manner | blunted the neuroprotective effect | exacerbated the toxic effects
